Data reported in patent publication US10160748B2 (AbbVie Inc., priority 2015, dated 2018).

molecular target: TNFα trimer (Homo sapiens, UniProt P01375); test: TNFα FP Competitive Binding Assay; settings: FP binding assay; 20 nM TNFα trimer, 1 nM OregonGreen488 probe; read-out: TNF IC50
Summary of the method: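 Fluorescence polarization competition: 20 nM TNFα trimer with 1 nM fluorescein-labelled probe in HEPES/NaCl/EDTA/Triton X-100 buffer, compound in 12-point 1:3 dilutions (final top 338 μM or 100 μM). Incubated 18-24 h, background-subtracted mP read, variable-slope dose-response fitting.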

TNFα trimer, sequence (P01375 77-233 limits assumed): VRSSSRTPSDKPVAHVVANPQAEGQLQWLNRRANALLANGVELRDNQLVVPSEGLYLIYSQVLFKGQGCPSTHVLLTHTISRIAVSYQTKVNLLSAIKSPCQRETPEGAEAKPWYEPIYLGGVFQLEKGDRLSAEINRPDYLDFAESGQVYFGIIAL

IC50 | SMILES
< 1 µM | Cc1ccc(C(F)(F)F)c(Cn2c3cc(-c4cnc(N5CCN6C(=O)NC[C@H]6C5)nc4)ccc3c(=O)n2C)n1 [Example 19.2]
1 to 10 µM | Cc1ccc(OC(F)F)c(Cn2c3cc(-c4cnc(C(C)(C)CO)nc4)ccc3c(=O)n2C)c1 [Example 22.9]
< 1 µM | Cc1ccc(C(F)(F)F)c(Cn2c3cc(-c4cnc(N5CCN(C(=O)CO)[C@H](C)C5)nc4)ccc3c(=O)n2C)n1 [Example 19.3]
< 1 µM | Cc1ccc(OC(F)F)c(Cn2c3cc(-c4cnc(N5CCN(C(=O)CC#N)[C@H](C)C5)nc4)ccc3c(=O)n2C)c1 [Example 21.4]
< 1 µM | CC(=O)N1CCN(c2ncc(-c3ccc4c(=O)n(C)n(Cc5cc(C)ccc5SC(F)F)c4n3)cn2)C[C@H]1C [Example 18.1]
1 to 10 µM | CN1CCC(Nc2ncc(-c3ccc4c(=O)n(C)n(Cc5cc(CO)ccc5OC(F)F)c4c3)cn2)C1=O (stereo not shown) [Example 16.2]
1 to 10 µM | Cn1c(=O)c2ccc(-c3cnc(N4CCN5C(=O)NC[C@H]5C4)nc3)cc2n1Cc1cccnc1C(F)(F)F [Example 29.2]
< 1 µM | Cc1ccc(OC(F)F)c(Cn2c3cc(-c4cnc(N5CCN6C(=O)OC[C@@H]6C5)nc4)ccc3c(=O)n2C)c1 [Example 20.2]
1 to 10 µM | CC(c1ccccc1Cl)n1c2cc(-c3cnc(N4CCN(C(=O)CO)[C@H](C)C4)nc3)ccc2c(=O)n1C (stereo partly shown) [Example 28.4]
< 1 µM | CC(=O)N1CCN(c2ncc(-c3ccc4c(=O)n(C)n(Cc5cc(C)ccc5OC(F)F)c4n3)cn2)C[C@H]1C [Example 18.2]
1 to 10 µM | Cc1ccc(OC(F)F)c(Cn2c3cc(-c4cnc(N5CCC[C@@H]5CO)nc4)ccc3c(=O)n2C)c1 [Example 22.8]

The next lines start with the molecule.

SMILES | IC50
Cn1c(=O)c2ccc(-c3cnc(N4CCN5C(=O)CCC5C4)nc3)cc2n1Cc1ccccc1OC(F)F (stereo not shown) [Example 2.23] | < 1 µM
Cc1ccc(OC(F)F)c(Cn2c3cc(-c4cnc(N5CCN(C(=O)C(O)CN)[C@H](C)C5)nc4)ccc3c(=O)n2C)c1 (stereo partly shown) [Example 14.9] | < 1 µM
Cn1c(=O)c2ccc(-c3cnc(NC4COC4)nc3)cc2n1Cc1ccccc1OC(F)F [Example 2.10] | 1 to 10 µM
Cc1cc2c(=O)n(C)n(Cc3ccccc3OC(F)F)c2cc1-c1cnc(N2CCC(C(=O)O)CC2)nc1 [Example 13.3] | 1 to 10 µM
CC(Nc1ncc(-c2ccc3c(=O)n(C)n(Cc4ccccc4OC(F)F)c3c2)cn1)C(N)=O (stereo not shown) [Example 10.4] | 1 to 10 µM
Cn1c(=O)c2ccc(-c3cnc(N4CCN(C(N)=O)CC4)nc3)cc2n1Cc1ccccc1OC(F)F [Example 2.1] | < 1 µM
Cn1c(=O)c2ccc(-c3cnc(N4CCN5C(=O)NC[C@@H]5C4)nc3)cc2n1Cc1cc(Cn2cncn2)ccc1OC(F)F [Example 113, (R)-7-(5-(1-(5-((1H-1,2,4-Triazol-1-yl)methyl)-2-(difluoromethoxy)benzyl)-2-methyl-3-oxo-2,3-dihydro-1H-indazol-6-yl)pyrimidin-2-yl)hexahydroimidazo[1,5-a]pyrazin-3(2H)-one] | < 1 µM
Cn1c(=O)c2ccc(-c3cnc(N4CCN5C(=O)NC[C@@H]5C4)nc3)cc2n1Cc1c(CO)cccc1OC(F)F [Example 66, (R)-7-(5-(1-(2-(difluoromethoxy)-6-(hydroxymethyl)benzyl)-2-methyl-3-oxo-2,3-dihydro-1H-indazol-6-yl)pyrimidin-2-yl)hexahydroimidazo[1,5-a]pyrazin-3(2H)-one] | < 1 µM
CC(=O)N1CCC(Oc2cc(-c3ccc4c(=O)n(C)n(Cc5ccccc5OC(F)F)c4c3)ccn2)CC1 [Example 10.12] | 1 to 10 µM
CN1CC(CNc2ncc(-c3ccc4c(=O)n(C)n(Cc5ccccc5OC(F)F)c4c3)cn2)CC1=O (stereo not shown) [Example 2.16] | 1 to 10 µM
Cn1c(=O)c2ccc(-c3cnc(N4CCNC(=O)C4)nc3)cc2n1Cc1ccccc1OC(F)F [Example 5.1] | 1 to 10 µM
COCc1ccc(OC(F)F)c(Cn2c3cc(-c4cnc(N5CCN(C(C)=O)CC5)nc4)ccc3c(=O)n2C)c1 [Example 90, 6-(2-(4-Acetylpiperazin-1-yl)pyrimidin-5-yl)-1-(2-(difluoromethoxy)-5-(methoxymethyl)benzyl)-2-methyl-1H-indazol-3(2H)-one] | 1 to 10 µM
Cc1ccc(OC(F)F)c(Cn2c3nc(-c4cnc(N5CCN(C(=O)CO)C[C@H]5C)nc4)ccc3c(=O)n2C)c1 [Example 80, (R)-1-(2-(Difluoromethoxy)-5-methylbenzyl)-6-(2-(4-(2-hydroxyacetyl)-2-methylpiperazin-1-yl)pyrimidin-5-yl)-2-methyl-1H-pyrazolo[3,4-b]pyridin-3(2H)-one] | < 1 µM
C[C@H](N)C(=O)OCc1ccc(OC(F)F)c(Cn2c3cc(-c4cnc(N5CCN6C(=O)OC[C@@H]6C5)nc4)ccc3c(=O)n2C)c1 [Example 21, (S)-4-(Difluoromethoxy)-3-((2-methyl-3-oxo-6-(2-((S)-3-oxotetrahydro-1H-oxazolo[3,4-a]pyrazin-7(3H)-yl)pyrimidin-5-yl)-2,3-dihydro-1H-indazol-1-yl)methyl)benzyl 2-aminopropanoate] | < 1 µM
Cc1ccc(OC(F)F)c(Cn2c3cc(C4=CCC(C(C)O)OC4)c(F)cc3c(=O)n2C)c1 (stereo not shown) [Example #131, 1-(2-(Difluoromethoxy)-5-methylbenzyl)-5-fluoro-6-(6-(1-hydroxyethyl)-5,6-dihydro-2H-pyran-3-yl)-2-methyl-1H-indazol-3(2H)-one] | < 1 µM
Cn1c(=O)c2ccc(-c3cnc(C(C)(C)O)nc3)cc2n1Cc1cc(NCc2ccccn2)ccc1Cl [Example 42, 1-(2-Chloro-5-((pyridin-2-ylmethyl)amino)benzyl)-6-(2-(2-hydroxypropan-2-yl)pyrimidin-5-yl)-2-methyl-1H-indazol-3(2H)-one] | 1 to 10 µM

SMILES | IC50
Cn1c(=O)c2ccc(-c3cnc(N4CCN5C(=O)NC[C@H]5C4)nc3)cc2n1Cc1cc(Cn2cnnc2)ccc1OC(F)F [Example 93, (S)-7-(5-(1-(5-((4H-1,2,4-triazol-4-yl)methyl)-2-(difluoromethoxy)benzyl)-2-methyl-3-oxo-2,3-dihydro-1H-indazol-6-yl)pyrimidin-2-yl)hexahydroimidazo[1,5-a]pyrazin-3(2H)-one] | < 1 µM
C[C@@H]1CN(c2ncc(-c3ccc4c(=O)n(C)n(Cc5ccccc5OC(F)F)c4c3)cn2)CCN1C(=O)C(O)CN (stereo partly shown) [Example 14.8] | < 1 µM
COC[C@H]1CCCN1c1ncc(-c2ccc3c(=O)n(C)n(Cc4ccccc4OC(F)F)c3c2)cn1 [Example 2.2] | < 1 µM
CC(=O)N1CCN(c2ncc(-c3ccc4c(=O)n(C)n(Cc5nc(C)ccc5OC(F)F)c4c3)cn2)C[C@H]1C [Example 75, (R)-6-(2-(4-Acetyl-3-methylpiperazin-1-yl)pyrimidin-5-yl)-1-((3-(difluoromethoxy)-6-methylpyridin-2-yl)methyl)-2-methyl-1H-indazol-3(2H)-one] | < 1 µM
COCc1cccc(OC(F)F)c1Cn1c2cc(-c3cnc(N4CCN5C(=O)NC[C@@H]5C4)nc3)ccc2c(=O)n1C [Example 33, (R)-7-(5-(1-(2-(Difluoromethoxy)-6-(methoxymethyl)benzyl)-2-methyl-3-oxo-2,3-dihydro-1H-indazol-6-yl)pyrimidin-2-yl)hexahydroimidazo[1,5-a]pyrazin-3(2H)-one] | < 1 µM
Cn1c(=O)c2ccc(-c3cnc(N4CCN5C(=O)NC[C@@H]5C4)nc3)cc2n1Cc1nc(CO)ccc1OC(F)F [Example 84] | < 1 µM
CC(=O)N1CCN(c2ncc(-c3ccc4c(=O)n(C)n(Cc5nc(C)ccc5C(F)(F)F)c4n3)cn2)C[C@H]1C [Example 73, (R)-6-(2-(4-Acetyl-3-methylpiperazin-1-yl)pyrimidin-5-yl)-2-methyl-1-((6-methyl-3-(trifluoromethyl)pyridin-2-yl)methyl)-1H-pyrazolo[3,4-b]pyridin-3(2H)-one] | < 1 µM
Cn1c(=O)c2ccc(-c3ccc(N4CCNCC4)nc3)cc2n1Cc1ccccc1OC(F)F [Example 14.1] | 1 to 10 µM
CC(=O)N1CCN(c2ncc(-c3ccc4c(=O)n(C)n(Cc5c(CO)cccc5OC(F)F)c4c3)cn2)[C@H](C)C1 [Example 65, (R)-6-(2-(4-acetyl-2-methylpiperazin-1-yl)pyrimidin-5-yl)-1-(2-(difluoromethoxy)-6-(hydroxymethyl)benzyl)-2-methyl-1H-indazol-3(2H)-one] | < 1 µM
Cn1c(=O)c2ccc(-c3cnc(N4CCOCC4)nc3)cc2n1CCc1ccccc1 [Example 1.4] | > 10 µM
C[C@@H]1CN(C(=O)CO)CCN1c1ncc(-c2c(F)cc3c(=O)n(C)n(Cc4ccccc4OC(F)F)c3c2F)cn1 [Example 30] | < 1 µM
CC(=O)N1CCN(c2ncc(-c3ccc4c(=O)n(C)n(Cc5cc(CN6CCN(C)C6=O)ccc5OC(F)F)c4c3)cn2)C[C@H]1C [Example #129*, (R)-6-(2-(4-Acetyl-3-methylpiperazin-1-yl)pyrimidin-5-yl)-1-(2-(difluoromethoxy)-5-((3-methyl-2-oxoimidazolidin-1-yl)methyl)benzyl)-2-methyl-1H-indazol-3(2H)-one] | 1 to 10 µM
CN1CCCC(Nc2ccc(Cl)c(Cn3c4cc(-c5cnc(C(C)(C)O)nc5)ccc4c(=O)n3C)c2)C1=O (stereo not shown) [Example 83, 1-(2-Chloro-5-((1-methyl-2-oxopiperidin-3-yl)amino)benzyl)-6-(2-(2-hydroxypropan-2-yl)pyrimidin-5-yl)-2-methyl-1H-indazol-3(2H)-one] | 1 to 10 µM
Cn1c(=O)c2ccc(-c3cnc(N4CCNCC4)nc3)cc2n1Cc1cc(Cl)ccc1Cl [Example 14.2] | 1 to 10 µM
C[C@@H]1C[C@H](O)CCN1c1ncc(-c2ccc3c(=O)n(C)n(Cc4ccccc4OC(F)F)c3c2)cn1 [Example 10.9] | < 1 µM
Cn1c(=O)c2ccc(-c3cnc(N4CCOCC4)nc3)cc2n1Cc1cc(CO)ccc1OC(F)F [Example 9, 1-(2-(Difluoromethoxy)-5-(hydroxymethyl)benzyl)-2-methyl-6-(2-morpholinopyrimidin-5-yl)-1H-indazol-3(2H)-one] | < 1 µM
